Data on three compounds can be found in ChEMBL document CHEMBL1201862, “PubChem BioAssay data set” (2004).

For orientation: EC50 means the concentration needed to bring the measured effect to its halfway point. A word on the IC50: it is the midpoint of a concentration-inhibition curve. Usually AC50 stands for the midpoint of the concentration-response curve, whichever way the signal moves.

Structures are written as SMILES. Active and inactive are the calls of the source. For most assays here, no stated cut-off is given here; in the data, actives have a measured EC50 and inactives only a lower limit.

In experiment [1] the target is T1, Alkaline phosphatase, tissue-nonspecific isozyme (Homo sapiens, UniProt P05186).
T1 sequence (P05186 whole entry): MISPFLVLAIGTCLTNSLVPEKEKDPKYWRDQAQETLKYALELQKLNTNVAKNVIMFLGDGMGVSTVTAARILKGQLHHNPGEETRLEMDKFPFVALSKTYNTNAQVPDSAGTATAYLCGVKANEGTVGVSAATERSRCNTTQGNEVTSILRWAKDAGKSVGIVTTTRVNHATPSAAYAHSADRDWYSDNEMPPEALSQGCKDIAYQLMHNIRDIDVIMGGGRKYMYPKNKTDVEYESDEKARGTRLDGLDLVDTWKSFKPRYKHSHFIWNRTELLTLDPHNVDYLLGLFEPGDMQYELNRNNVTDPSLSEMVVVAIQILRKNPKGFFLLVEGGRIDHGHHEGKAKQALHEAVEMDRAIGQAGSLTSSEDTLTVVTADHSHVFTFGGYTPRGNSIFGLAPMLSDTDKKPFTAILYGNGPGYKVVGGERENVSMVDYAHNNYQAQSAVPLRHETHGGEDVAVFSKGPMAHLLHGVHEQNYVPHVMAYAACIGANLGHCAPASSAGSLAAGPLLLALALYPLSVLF
Kind of experiment: activation of tissue-nonspecific alkaline phosphatase – biochemical, TNAP isozyme, mouse IAP uHTS hits, selectivity assay for mouse IAP activator project, dose response (AID 488880). It is filed as functional.

The target in experiment [2] is Intestinal-type alkaline phosphatase (Homo sapiens, UniProt P09923). The experiment is described as follows: activation of human intestinal alkaline phosphatase – biochemical, dose response (AID 488873). The experiment is classed as functional.
Intestinal-type alkaline phosphatase (Homo sapiens, UniProt P09923), sequence (P09923 whole entry): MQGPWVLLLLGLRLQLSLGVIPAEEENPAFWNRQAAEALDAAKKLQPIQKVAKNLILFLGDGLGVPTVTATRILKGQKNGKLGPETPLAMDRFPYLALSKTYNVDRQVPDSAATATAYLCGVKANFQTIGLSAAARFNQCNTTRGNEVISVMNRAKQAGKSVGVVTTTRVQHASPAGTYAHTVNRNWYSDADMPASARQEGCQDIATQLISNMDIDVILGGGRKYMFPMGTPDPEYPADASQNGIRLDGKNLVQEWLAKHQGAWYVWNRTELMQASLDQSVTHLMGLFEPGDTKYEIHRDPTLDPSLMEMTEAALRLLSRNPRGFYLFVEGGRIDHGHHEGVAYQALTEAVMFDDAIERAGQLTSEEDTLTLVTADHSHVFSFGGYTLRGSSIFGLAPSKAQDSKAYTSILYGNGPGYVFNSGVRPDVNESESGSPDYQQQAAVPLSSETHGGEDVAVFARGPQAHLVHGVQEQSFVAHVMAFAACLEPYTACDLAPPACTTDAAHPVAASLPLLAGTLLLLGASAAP
In experiment [3] the target is Intestinal-type alkaline phosphatase (Mus musculus, UniProt P24822). The experiment is described as follows: mouse intestinal alkaline phosphatase activators, dose response, biochemical, luminescence, uHTS hits (AID 488783). It is filed as functional.
Intestinal-type alkaline phosphatase (Mus musculus, UniProt P24822), sequence (P24822 whole entry): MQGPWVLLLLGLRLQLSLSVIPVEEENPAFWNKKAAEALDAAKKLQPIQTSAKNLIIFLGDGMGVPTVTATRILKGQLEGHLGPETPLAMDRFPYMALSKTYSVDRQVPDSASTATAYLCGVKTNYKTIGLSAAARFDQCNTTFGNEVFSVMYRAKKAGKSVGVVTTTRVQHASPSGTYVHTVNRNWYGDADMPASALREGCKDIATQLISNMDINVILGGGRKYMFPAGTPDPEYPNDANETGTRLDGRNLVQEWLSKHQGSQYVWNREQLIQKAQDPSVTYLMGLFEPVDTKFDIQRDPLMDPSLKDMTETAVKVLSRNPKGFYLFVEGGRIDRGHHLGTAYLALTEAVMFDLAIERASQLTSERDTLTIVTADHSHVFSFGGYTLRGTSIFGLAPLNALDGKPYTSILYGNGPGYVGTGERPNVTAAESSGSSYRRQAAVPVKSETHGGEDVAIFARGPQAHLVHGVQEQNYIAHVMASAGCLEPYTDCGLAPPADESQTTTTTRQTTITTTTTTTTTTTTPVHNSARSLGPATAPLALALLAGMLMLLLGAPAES
The nature of experiment [4]: NIH3T3 cell viability loss – ATP luminescence, mouse fibroblasts, counter-screen, dose response (AID 2010).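 Further: cells exposed to compound for about 90 hours before reading.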 The experiment is classed as functional, cell-based. (Counterscreens check selectivity or assay interference.)
Experiment [5] has as its target T2, Sphingosine 1-phosphate receptor 1 (Homo sapiens, UniProt P21453). Kind of experiment: Fluorescence-based counterscreen assay for S1P4 agonists: Cell-based dose response high throughput screening assay to identify agonists of the Sphingosine 1-Phosphate Receptor 1 (S1P1). [Related pubchem assays (depositor defined):AID1509, AID1523, AID1801, AID463107, AID463118, AID463119, AID463122, AID463123, AID463129, AID463225, AID504400, AID504460]. The experiment is classed as functional.

For experiment [6], the target named is T3, Sphingosine 1-phosphate receptor 4 (Homo sapiens, UniProt O95977).
T3 sequence (O95977 whole entry): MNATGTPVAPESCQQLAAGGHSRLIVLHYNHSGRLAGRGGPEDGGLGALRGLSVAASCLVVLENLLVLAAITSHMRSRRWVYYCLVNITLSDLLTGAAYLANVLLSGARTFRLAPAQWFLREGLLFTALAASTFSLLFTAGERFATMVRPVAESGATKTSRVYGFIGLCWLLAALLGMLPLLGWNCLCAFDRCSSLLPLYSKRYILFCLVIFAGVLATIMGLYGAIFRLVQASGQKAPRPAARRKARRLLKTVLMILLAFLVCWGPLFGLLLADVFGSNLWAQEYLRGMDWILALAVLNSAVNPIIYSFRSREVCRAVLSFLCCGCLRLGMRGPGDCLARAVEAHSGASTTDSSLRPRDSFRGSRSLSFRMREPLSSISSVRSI
The experiment is described as follows: Fluorescence dose response cell-based high throughput screening assay for agonists of the Sphingosine 1-Phosphate Receptor 4 (S1P4). [Related pubchem assays: 1509 (Primary screen.), 1523 (Confirmation screen in triplicates.)]. The experiment is classed as functional.

The nature of experiment [7]: Trypanosoma cruzi growth suppression in host cells – NIH3T3 host cells, beta-gal luminescence, confirmation (AID 2044).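 Further: intracellular parasites grown in NIH/3T3 mouse fibroblasts as host cells; luminescent beta-galactosidase reporter signal from transgenic T. cruzi replicating inside host cells; inhibitors lower the luminescence signal.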 It is filed as functional, cell-based.
Experiment [8] addresses T3, Sphingosine 1-phosphate receptor 4. Kind of experiment: Fluorescence dose response cell-based high throughput screening assay for antagonists of the Sphingosine 1-Phosphate Receptor 4 (S1P4). [Related pubchem assays: 1524 (Confirmation in triplicates.), 1510 (Primary screen.)]. It is filed as functional.
The nature of experiment [9]: Luminescence Cell-Based Dose Response HTS to Identify Inhibitors of 5'UTR Stem-Loop Driven Prion Protein mRNA Translation in H4 Neuroglioblastoma Cells. [Related pubchem assays: 1827 (Project Summary), 1813 (Primary HTS)]. It is filed as functional.
Experiment [10] deals with T4, Heat shock factor protein 1 (Mus musculus, UniProt P38532).
T4 sequence (P38532 whole entry): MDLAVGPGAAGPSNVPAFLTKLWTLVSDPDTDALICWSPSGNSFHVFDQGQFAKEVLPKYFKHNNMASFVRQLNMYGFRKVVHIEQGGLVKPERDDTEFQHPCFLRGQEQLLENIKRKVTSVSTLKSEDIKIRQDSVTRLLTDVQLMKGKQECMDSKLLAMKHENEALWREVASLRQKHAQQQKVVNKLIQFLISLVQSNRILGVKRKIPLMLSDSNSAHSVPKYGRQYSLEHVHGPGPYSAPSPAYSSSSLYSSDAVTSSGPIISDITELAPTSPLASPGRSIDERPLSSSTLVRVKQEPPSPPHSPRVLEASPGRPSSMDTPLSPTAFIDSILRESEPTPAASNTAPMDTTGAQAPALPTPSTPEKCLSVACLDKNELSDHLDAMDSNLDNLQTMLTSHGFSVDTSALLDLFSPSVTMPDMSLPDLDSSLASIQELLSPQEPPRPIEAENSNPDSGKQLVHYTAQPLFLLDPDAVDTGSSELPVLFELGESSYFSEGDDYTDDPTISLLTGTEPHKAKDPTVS
Kind of experiment: decrease of HSF1-responsive luciferase luminescence – cell-based, NIH3T3, dose retest, confirmation (AID 2382).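 Further: NIH3T3 fibroblasts with HSF1-driven luciferase reporter stressed by proteasome inhibitor MG132; luminescence from HSF1-driven luciferase expression after 8 hours of MG132 stress.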 It is filed as functional.

Experiment [11] in a line: alpha-synuclein stem-loop luciferase translation blockers – H4 neuroglioma cells, luminescence, confirmation (AID 1988). It is filed as functional, cell-based.
Experiment [12] has as its target T2, Sphingosine 1-phosphate receptor 1. It is filed as functional.
Experiment [13] is described as follows: HEK-293T viability loss after treatment – luminescence, T-cell screen hits, cytotoxicity control for TCR NF-kB inhibitor project, dose response (AID 489026).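 Further: cells exposed to compound about 14 hours before the viability readout.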 It is filed as functional, cell-based.
Experiment [14] in a line: alpha-synuclein stem-loop translation blockers – luminescence, H4 neuroglioblastoma cells, dose confirmation, confirmation (AID 2454).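 Further: H4 neuroglioblastoma cells carrying an alpha-synuclein 5'UTR luciferase reporter; potency for inhibition of the luciferase signal.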 The experiment is classed as functional, cell-based.
Experiment [15] can be described thus: luciferase reporter signal suppression in cells – H4 neuroglioma cells, luminescence, dose response (AID 1990). The experiment is classed as functional, cell-based. (In general: Reporter assays use an easily measured gene product as a stand-in for the process of interest.)
The target of experiment [16] is T5, Replicative DNA helicase DnaB (Mycobacterium tuberculosis, UniProt P9WMR3).
T5 sequence (P9WMR3 whole entry): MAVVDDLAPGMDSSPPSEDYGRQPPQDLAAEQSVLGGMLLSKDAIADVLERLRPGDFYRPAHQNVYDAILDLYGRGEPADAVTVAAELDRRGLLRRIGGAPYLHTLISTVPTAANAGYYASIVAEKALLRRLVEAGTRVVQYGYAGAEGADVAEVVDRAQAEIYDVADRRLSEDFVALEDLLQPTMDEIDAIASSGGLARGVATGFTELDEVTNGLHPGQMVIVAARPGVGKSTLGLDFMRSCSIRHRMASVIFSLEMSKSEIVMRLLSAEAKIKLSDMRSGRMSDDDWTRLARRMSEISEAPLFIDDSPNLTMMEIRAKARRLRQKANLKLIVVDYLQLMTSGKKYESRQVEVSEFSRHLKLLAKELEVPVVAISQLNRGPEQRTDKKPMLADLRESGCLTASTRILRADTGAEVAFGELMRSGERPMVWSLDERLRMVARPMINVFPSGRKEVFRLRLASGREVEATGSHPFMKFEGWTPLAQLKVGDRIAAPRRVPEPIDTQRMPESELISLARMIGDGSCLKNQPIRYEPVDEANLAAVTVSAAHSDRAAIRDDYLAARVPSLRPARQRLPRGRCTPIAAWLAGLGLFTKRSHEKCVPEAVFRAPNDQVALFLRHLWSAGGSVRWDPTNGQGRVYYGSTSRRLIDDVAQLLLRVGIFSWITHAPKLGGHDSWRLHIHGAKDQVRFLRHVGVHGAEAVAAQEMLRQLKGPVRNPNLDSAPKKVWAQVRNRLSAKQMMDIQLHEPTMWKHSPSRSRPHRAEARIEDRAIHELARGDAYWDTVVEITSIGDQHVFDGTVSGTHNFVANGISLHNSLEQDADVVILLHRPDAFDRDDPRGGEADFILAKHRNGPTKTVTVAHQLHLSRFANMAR
Kind of experiment: DnaB Intein secondary assay Measured in Biochemical System Using Plate Reader - 2047-04_Inhibitor_Dose_DryPowder_Activity. [Related pubchem assays (depositor defined):AID2223].

In experiment [17] the target is T6, Protein RecA (Mycobacterium tuberculosis, UniProt P9WHJ3).
T6 sequence (P9WHJ3 whole entry): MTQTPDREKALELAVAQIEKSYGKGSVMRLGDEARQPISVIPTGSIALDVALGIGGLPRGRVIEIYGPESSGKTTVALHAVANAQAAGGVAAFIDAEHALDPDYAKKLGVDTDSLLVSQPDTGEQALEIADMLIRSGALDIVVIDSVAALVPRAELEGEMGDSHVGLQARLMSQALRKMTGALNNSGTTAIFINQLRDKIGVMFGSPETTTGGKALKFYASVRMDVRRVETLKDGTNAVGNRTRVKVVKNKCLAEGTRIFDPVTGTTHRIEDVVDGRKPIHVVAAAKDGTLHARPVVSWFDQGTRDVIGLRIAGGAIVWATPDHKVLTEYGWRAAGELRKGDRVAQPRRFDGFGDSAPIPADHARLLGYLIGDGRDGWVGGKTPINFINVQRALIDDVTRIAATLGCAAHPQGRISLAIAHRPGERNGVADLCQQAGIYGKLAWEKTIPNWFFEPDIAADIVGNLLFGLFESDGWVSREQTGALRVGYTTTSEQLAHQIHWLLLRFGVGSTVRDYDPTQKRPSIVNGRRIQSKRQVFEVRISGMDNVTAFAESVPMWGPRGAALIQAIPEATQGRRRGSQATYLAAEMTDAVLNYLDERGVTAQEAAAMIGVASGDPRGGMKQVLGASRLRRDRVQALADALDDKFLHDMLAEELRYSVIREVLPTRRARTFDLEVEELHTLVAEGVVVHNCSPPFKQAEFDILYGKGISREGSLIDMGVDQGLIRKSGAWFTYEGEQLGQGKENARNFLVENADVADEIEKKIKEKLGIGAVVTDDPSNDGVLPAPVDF
Kind of experiment: Fluorescence Cell-Free Homogeneous Dose Retest to Identify Inhibitors of RecA-Intein Splicing Activity. [Related pubchem assays (depositor defined):AID2097, AID2223, AID489010, AID492950]. The experiment is classed as functional.

A short description of experiment [18]: Luminescence-based dose response cell-based high throughput screening assay for cytotoxic compounds using the IEC-6 intestinal epithelial cell line. [Related pubchem assays: 1858 (Summary AID.), 1825 (Counterscreen.), 1907 (Confirmation screen.)]. The experiment is classed as functional.
The nature of experiment [19]: Intein inhibitors as potential Tuberculosis drugs, a cytotoxicity screen. [Related pubchem assays (depositor defined):AID2221, AID2223, AID434968, AID435010, AID449749, AID449750, AID489010]. The experiment is classed as functional.
Another experiment has as its system Streptococcus. The experiment is described as follows: GAS UMAA2166 growth inhibition – luminescence, BacTiterGlo, counter-screen for streptokinase expression inhibitor project, dose response (AID 1915).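 Further: potency for reduction of bacterial viability or growth.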 It is filed as functional, organism-based.
Experiment [20] concerns the target T5, Replicative DNA helicase DnaB. Kind of experiment: DnaB intein splicing inhibitors, dose response, biochemical, cell-free fluorescence (AID 449749). The experiment is classed as functional.
Experiment [21] concerns the target T6, Protein RecA. Kind of experiment: GFP-RecA MOA-DTT Measured in Biochemical System Using Plate Reader - 2047-05_Inhibitor_Dose_DryPowder_Activity. [Related pubchem assays (depositor defined):AID2223]. On the set-up: species or system Mycobacterium tuberculosis H37Rv.
Another experiment in a line: cells. It is filed as functional, cell-based.
The nature of experiment [22]: luciferase reporter signal reduction – luminescence, H4-C neuroglioblastoma cells, dose response (AID 2458).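 Further: H4 neuroglioblastoma cells stably carrying a luciferase reporter gene fusion.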 The experiment is classed as functional, cell-based.
Experiment [23] can be described thus: microbe, parasite or virus in culture. Conditions: Mycobacterium tuberculosis. It is filed as functional.
The subject of experiment [24] is Streptococcus sp. 'group A'. Kind of experiment: Streptococcus pyogenes SK(-)GAS viability under kanamycin – luminescence, BacTiterGlo, confirmation, counter-screen for streptokinase expression inhibitor project, dose response (AID 1900). It is filed as functional, organism-based.

T2 sequence (P21453 whole entry): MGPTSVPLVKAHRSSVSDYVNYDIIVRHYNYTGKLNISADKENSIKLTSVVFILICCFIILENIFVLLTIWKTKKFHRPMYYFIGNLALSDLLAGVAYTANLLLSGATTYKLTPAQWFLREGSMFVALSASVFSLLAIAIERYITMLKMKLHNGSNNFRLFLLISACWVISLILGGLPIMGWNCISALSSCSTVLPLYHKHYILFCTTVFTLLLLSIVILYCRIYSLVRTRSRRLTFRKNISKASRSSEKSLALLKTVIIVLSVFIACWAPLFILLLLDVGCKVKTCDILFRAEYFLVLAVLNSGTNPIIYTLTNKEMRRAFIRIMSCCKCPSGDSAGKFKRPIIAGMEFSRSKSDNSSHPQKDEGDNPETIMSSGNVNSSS

Consider `Cc1ccc(NC(=O)CCNS(=O)(=O)c2ccc3nc(O)oc3c2)c(Cl)c1`, for which the EC50 in experiment [1] was 28100 nM (active); in experiment [2], 20400 nM (active); in experiment [3], 14900 nM (active).
As to `CC(=O)C1=C(C)NC(SCC(=O)c2ccc(Cl)cc2Cl)=C(C#N)C1c1ccco1` (stereo unspecified), the EC50 was 15700 nM (active) in [4], > 49800 nM (inactive) in experiment [5], > 49800 nM (not active) in experiment [6] and 437 nM (active) in [7].
As to `Cc1oc2c(c1C(=O)NCc1cccnc1)C(=O)c1ccccc1C2=O`, the IC50 is 581 nM (active) in [8], 3650 nM (active) in [12], 7670 nM (active) in [13] and 158 nM (active) in experiment [18]. Further, the EC50 was < 100 nM (active) in [9]; 304 nM (active) in experiment [10]; < 100 nM (active) in [11]; 145 nM (active) in [14]; < 100 nM (active) in experiment [15]; 63.9 nM (active) at Protein RecA [17]. Also, the EC50 in the experiment with Streptococcus is 2560 nM (active); in “cells”, 232 nM (active); in [22], 127 nM (active); in experiment [24], 1310 nM (active). Besides, the AC50 in [16] was 1150 nM (active); in experiment [20], 438 nM (active); at Protein RecA [21], 10800 nM (active). Besides, the values for the CC50 in experiment [19] and in experiment [23] were 520 nM (active) and 295 nM (active), respectively.
